From US20210290732A1, “GLP-1R and GCGR Agonists, Formulations, and Methods of Use” (Spitfire Pharma LLC, priority 2020, published 2021)
Where two headings read alike, the source gives them in different places. Each block holds one compound with its values, some of them ahead of it.

Experiments:
GCGR = GCGR (Homo sapiens, UniProt P47871); experiment: cAMP receptor activation assay, human GCGR cloned into CHO cells (DiscoverX LeadHunter / cAMP Hunter); format: cell-based; set-up: host or cells: CHO-K1
Chain of GCGR (P47871 26-477): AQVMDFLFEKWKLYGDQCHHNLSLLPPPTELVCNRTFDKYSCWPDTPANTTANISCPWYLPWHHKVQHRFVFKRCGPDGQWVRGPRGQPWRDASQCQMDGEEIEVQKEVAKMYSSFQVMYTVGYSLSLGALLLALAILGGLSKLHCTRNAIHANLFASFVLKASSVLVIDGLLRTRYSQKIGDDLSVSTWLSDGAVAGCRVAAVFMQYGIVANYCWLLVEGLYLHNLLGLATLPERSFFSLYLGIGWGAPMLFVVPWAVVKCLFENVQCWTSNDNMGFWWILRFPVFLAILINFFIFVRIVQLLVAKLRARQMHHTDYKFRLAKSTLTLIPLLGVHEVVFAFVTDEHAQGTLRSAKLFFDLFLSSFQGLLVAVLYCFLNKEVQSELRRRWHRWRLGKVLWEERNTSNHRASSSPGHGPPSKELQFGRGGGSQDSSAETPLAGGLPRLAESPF

human GLP-1R = molecular target: T1, human GLP-1R (Homo sapiens, UniProt P43220); experiment: cAMP receptor activation assay, human GLP-1R cloned into CHO cells (DiscoverX LeadHunter / cAMP Hunter); format: cell-based; details: for Selectivity Ratio GLP-1R vs GCGR: SR = GCGR EC50/GLP-1 EC50, 0.1% BSA
T1 construct: host or cells: CHO-K1
T1 sequence (P43220 24-463): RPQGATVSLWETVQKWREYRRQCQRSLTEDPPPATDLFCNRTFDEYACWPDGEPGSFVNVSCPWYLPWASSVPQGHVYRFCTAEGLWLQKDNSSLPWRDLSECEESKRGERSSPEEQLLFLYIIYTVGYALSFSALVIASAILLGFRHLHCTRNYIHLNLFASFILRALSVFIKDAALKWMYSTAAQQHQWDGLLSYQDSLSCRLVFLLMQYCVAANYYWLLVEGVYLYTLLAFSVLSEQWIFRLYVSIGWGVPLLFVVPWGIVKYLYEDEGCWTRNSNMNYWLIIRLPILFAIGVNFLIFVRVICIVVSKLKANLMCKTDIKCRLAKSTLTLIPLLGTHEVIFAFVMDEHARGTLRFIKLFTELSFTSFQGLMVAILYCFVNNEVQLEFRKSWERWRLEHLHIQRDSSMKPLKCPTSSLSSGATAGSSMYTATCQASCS

[1] = ratio of EC50 in 0.1% BSA and 0.1% ovalbumin
[2] = cAMP, CHO cells, 0.1% BSA containing buffers, read-out: pEC50 (SE) huGCGR (converted)
[3] = cAMP, CHO cells, 0.1% BSA containing buffers, read-out: pEC50 (SE) hu GLP-1 (converted)

Compound: CCCCCCCCCCCCCCCCO[C@@H]1O[C@H](CO[C@H]2O[C@H](C(=O)NCCCC[C@@H]3NC(=O)[C@@H](NC(=O)[C@H](CC(=O)O)NC(=O)[C@H](CC(C)C)NC(=O)[C@H](Cc4ccc(O)cc4)NC(=O)[C@H](CCCCN)NC(=O)[C@H](CO)NC(=O)[C@H](Cc4ccc(O)cc4)NC(=O)[C@H](CC(=O)O)NC(=O)[C@H](CO)NC(=O)[C@@H](NC(=O)[C@H](Cc4ccccc4)NC(=O)[C@@H](NC(=O)CNC(=O)[C@H](CCC(N)=O)NC(=O)C(C)(C)NC(=O)[C@@H](N)Cc4c[nH]cn4)[C@@H](C)O)[C@@H](C)O)CCC(=O)NCCCC[C@@H](C(=O)N[C@@H](CCC(=O)O)C(=O)N[C@@H](Cc4ccccc4)C(=O)N[C@H](C(=O)N[C@@H](CCC(N)=O)C(=O)N[C@@H](Cc4c[nH]c5ccccc45)C(=O)N[C@@H](CC(C)C)C(=O)N[C@@H](CC(C)C)C(=O)N[C@@H](CCC(N)=O)C(=O)N[C@H](C(N)=O)[C@@H](C)O)[C@@H](C)CC)NC(=O)[C@H](C)NC(=O)[C@H](C)NC3=O)[C@H](O)[C@H](O)[C@H]2O)[C@@H](O)[C@H](O)[C@H]1O [EU-A1588]
Ovalbumin vs. BSA - fold improv/worsen GCG R (GCGR; [1]): 6 fold
Ovalbumin vs. BSA - fold improv/worsen GLP-1 R (human GLP-1R; [1]): 5 fold

EC50 (GCGR; EC50 cAMP glucagon R (pM) 0.1% BSA, Table 5, 0.1% BSA): 461 pM
EC50 (human GLP-1R; EC50 cAMP GLP-1 R (pM) 0.1% BSA, Table 5, 0.1% BSA): 162 pM
Compound: CC[C@H](C)[C@H](NC(=O)[C@H](Cc1ccccc1)NC(=O)[C@H](CCC(=O)O)NC(=O)[C@@H]1CCCCNC(=O)CC[C@H](NC(=O)[C@H](CC(=O)O)NC(=O)[C@H](CC(C)C)NC(=O)[C@H](Cc2ccc(O)cc2)NC(=O)[C@H](CCCCN)NC(=O)[C@H](CO)NC(=O)[C@H](Cc2ccc(O)cc2)NC(=O)[C@H](CC(=O)O)NC(=O)[C@H](CO)NC(=O)[C@@H](NC(=O)[C@H](Cc2ccccc2)NC(=O)[C@@H](NC(=O)CNC(=O)[C@H](CCC(N)=O)NC(=O)C(C)(C)NC(=O)[C@@H](N)Cc2c[nH]cn2)[C@@H](C)O)[C@@H](C)O)C(=O)N[C@@H](CCC(N)=O)C(=O)N[C@@H](C)C(=O)N[C@@H](C)C(=O)N1)C(=O)N[C@@H](CCCCNC(=O)[C@H]1O[C@@H](OCCCCCCCCCCCCCCCC(=O)O)[C@H](O)[C@@H](O)[C@@H]1O)C(=O)N[C@@H](Cc1c[nH]c2ccccc12)C(=O)N[C@@H](CC(C)C)C(=O)N[C@@H](CC(C)C)C(=O)N[C@@H](CCC(N)=O)C(=O)N[C@H](C(N)=O)[C@@H](C)O [EU-A1871]

EC50 (GCGR; read-out: EC50 cAMP glucagon R (pM) 0.1% Ovalb, Table 5, 0.1% ovalbumin): 86 pM
EC50 (human GLP-1R; read-out: EC50 cAMP GLP-1 R (pM) 0.1% BSA, Table 5, 0.1% BSA): 1270 pM
EC50 (human GLP-1R; read-out: EC50 cAMP GLP-1 R (pM) 0.1% BSA, Table 6, 0.1% BSA): 1270 pM
Compound: CC[C@H](C)[C@H](NC(=O)[C@H](Cc1ccccc1)NC(=O)[C@H](CCC(=O)O)NC(=O)[C@@H]1CCCCNC(=O)CC[C@H](NC(=O)[C@H](CC(=O)O)NC(=O)[C@H](CC(C)C)NC(=O)[C@H](Cc2ccc(O)cc2)NC(=O)[C@H](CCCCN)NC(=O)[C@H](CO)NC(=O)[C@H](Cc2ccc(O)cc2)NC(=O)[C@H](CC(=O)O)NC(=O)[C@H](CO)NC(=O)[C@@H](NC(=O)[C@H](Cc2ccccc2)NC(=O)[C@@H](NC(=O)CNC(=O)[C@H](CCC(N)=O)NC(=O)C(C)(C)NC(=O)[C@@H](N)Cc2c[nH]cn2)[C@@H](C)O)[C@@H](C)O)C(=O)N[C@@H](CCC(N)=O)C(=O)N[C@@H](C)C(=O)N[C@@H](C)C(=O)N1)C(=O)N[C@@H](CCCCNC(=O)[C@H]1O[C@@H](OCCCCCCCCCCCCCCCCCC(=O)O)[C@H](O)[C@@H](O)[C@@H]1O)C(=O)N[C@@H](Cc1c[nH]c2ccccc12)C(=O)N[C@@H](CC(C)C)C(=O)N[C@@H](CC(C)C)C(=O)N[C@@H](CCC(N)=O)C(=O)N[C@H](C(N)=O)[C@@H](C)O [EU-A1872]

EC50 (GCGR; [2]): 20 pM
Selectivity Ratio GLP-1R vs GCGR (human GLP-1R): 3
EC50 (human GLP-1R; cAMP, CHO cells, 0.1% BSA containing buffers, read-out: EC50 hGLP-1R): 8 pM
EC50 (human GLP-1R; [3]): 8.51 pM
Compound: CCCCCCCCO[C@@H]1O[C@H](C(=O)NCCCC[C@H](NC(=O)[C@@H](NC(=O)[C@H](Cc2ccccc2)NC(=O)[C@H](CCC(=O)O)NC(=O)[C@@H]2CCCCNC(=O)CC[C@H](NC(=O)[C@H](CC(=O)O)NC(=O)[C@H](CC(C)C)NC(=O)[C@H](Cc3ccc(O)cc3)NC(=O)[C@H](CCCCN)NC(=O)[C@H](CO)NC(=O)[C@H](Cc3ccc(O)cc3)NC(=O)[C@H](CC(=O)O)NC(=O)[C@H](CO)NC(=O)[C@@H](NC(=O)[C@H](Cc3ccccc3)NC(=O)[C@@H](NC(=O)CNC(=O)[C@H](CCC(N)=O)NC(=O)C(C)(C)NC(=O)[C@@H](N)Cc3c[nH]cn3)[C@@H](C)O)[C@@H](C)O)C(=O)N[C@@H](CCC(N)=O)C(=O)N[C@@H](C)C(=O)N[C@@H](C)C(=O)N2)[C@@H](C)CC)C(=O)N[C@@H](Cc2c[nH]c3ccccc23)C(=O)N[C@@H](CC(C)C)C(=O)N[C@@H](CC(C)C)C(=O)N[C@@H](CCC(N)=O)C(=O)N[C@H](C(N)=O)[C@@H](C)O)[C@@H](O)[C@H](O)[C@H]1O [analogue 1]

EC50 (GCGR; [2]): 28.8 pM
Compound: CCCCCCCCCCCCO[C@@H]1O[C@H](C(=O)NCCCC[C@H](NC(=O)[C@@H](NC(=O)[C@H](Cc2ccccc2)NC(=O)[C@H](CCC(=O)O)NC(=O)[C@@H]2CCCCNC(=O)CC[C@H](NC(=O)[C@H](CC(=O)O)NC(=O)[C@H](CC(C)C)NC(=O)[C@H](Cc3ccc(O)cc3)NC(=O)[C@H](CCCCN)NC(=O)[C@H](CO)NC(=O)[C@H](Cc3ccc(O)cc3)NC(=O)[C@H](CC(=O)O)NC(=O)[C@H](CO)NC(=O)[C@@H](NC(=O)[C@H](Cc3ccccc3)NC(=O)[C@@H](NC(=O)CNC(=O)[C@H](CCC(N)=O)NC(=O)C(C)(C)NC(=O)[C@@H](N)Cc3c[nH]cn3)[C@@H](C)O)[C@@H](C)O)C(=O)N[C@@H](CCC(N)=O)C(=O)N[C@@H](C)C(=O)N[C@@H](C)C(=O)N2)[C@@H](C)CC)C(=O)N[C@@H](Cc2c[nH]c3ccccc23)C(=O)N[C@@H](CC(C)C)C(=O)N[C@@H](CC(C)C)C(=O)N[C@@H](CCC(N)=O)C(=O)N[C@H](C(N)=O)[C@@H](C)O)[C@@H](O)[C@H](O)[C@H]1O [analogue 3]

Compound: CCCCCCCCCCCCCCCCCCO[C@@H]1O[C@H](C(=O)NCCCC[C@H](NC(=O)[C@@H](NC(=O)[C@H](Cc2ccccc2)NC(=O)[C@H](CCC(=O)O)NC(=O)[C@@H]2CCCCNC(=O)CC[C@H](NC(=O)[C@H](CC(=O)O)NC(=O)[C@H](CC(C)C)NC(=O)[C@H](Cc3ccc(O)cc3)NC(=O)[C@H](CCCCN)NC(=O)[C@H](CO)NC(=O)[C@H](Cc3ccc(O)cc3)NC(=O)[C@H](CC(=O)O)NC(=O)[C@H](CO)NC(=O)[C@@H](NC(=O)[C@H](Cc3ccccc3)NC(=O)[C@@H](NC(=O)CNC(=O)[C@H](CCC(N)=O)NC(=O)C(C)(C)NC(=O)[C@@H](N)Cc3c[nH]cn3)[C@@H](C)O)[C@@H](C)O)C(=O)N[C@@H](CCC(N)=O)C(=O)N[C@@H](C)C(=O)N[C@@H](C)C(=O)N2)[C@@H](C)CC)C(=O)N[C@@H](Cc2c[nH]c3ccccc23)C(=O)N[C@@H](CC(C)C)C(=O)N[C@@H](CC(C)C)C(=O)N[C@@H](CCC(N)=O)C(=O)N[C@H](C(N)=O)[C@@H](C)O)[C@@H](O)[C@H](O)[C@H]1O [analogue 6]
Selectivity Ratio (SR=GCGR EC50/GLP-1 EC50) (GCGR): 17
EC50 (GCGR; text on Table 17, read-out: EC50 values for GCGR): 884 pM
Selectivity Ratio GLP-1R vs GCGR (human GLP-1R): 17

Compound: CCCCCCCCCCCCO[C@@H]1O[C@H](C(=O)O)[C@@H](O[C@H]2O[C@H](C(=O)NCCCC[C@H](NC(=O)[C@@H](NC(=O)[C@H](Cc3ccccc3)NC(=O)[C@H](CCC(=O)O)NC(=O)[C@@H]3CCCCNC(=O)CC[C@H](NC(=O)[C@H](CC(=O)O)NC(=O)[C@H](CC(C)C)NC(=O)[C@H](Cc4ccc(O)cc4)NC(=O)[C@H](CCCCN)NC(=O)[C@H](CO)NC(=O)[C@H](Cc4ccc(O)cc4)NC(=O)[C@H](CC(=O)O)NC(=O)[C@H](CO)NC(=O)[C@@H](NC(=O)[C@H](Cc4ccccc4)NC(=O)[C@@H](NC(=O)CNC(=O)[C@H](CCC(N)=O)NC(=O)C(C)(C)NC(=O)[C@@H](N)Cc4c[nH]cn4)[C@@H](C)O)[C@@H](C)O)C(=O)N[C@@H](CCC(N)=O)C(=O)N[C@@H](C)C(=O)N[C@@H](C)C(=O)N3)[C@@H](C)CC)C(=O)N[C@@H](Cc3c[nH]c4ccccc34)C(=O)N[C@@H](CC(C)C)C(=O)N[C@@H](CC(C)C)C(=O)N[C@@H](CCC(N)=O)C(=O)N[C@H](C(N)=O)[C@@H](C)O)[C@@H](O)[C@H](O)[C@H]2O)[C@H](O)[C@H]1O [analogue 7]
EC50 (GCGR; [2]): 14.8 pM
EC50 (human GLP-1R): 50.1 pM

Compound: CCCCCCCCCCCCCCO[C@@H]1O[C@H](C(=O)NCCCC[C@H](N)C(=O)NCCCC[C@H](NC(=O)[C@@H](NC(=O)[C@H](Cc2ccccc2)NC(=O)[C@H](CCC(=O)O)NC(=O)[C@@H]2CCCCNC(=O)CC[C@H](NC(=O)[C@H](CC(=O)O)NC(=O)[C@H](CC(C)C)NC(=O)[C@H](Cc3ccc(O)cc3)NC(=O)[C@H](CCCCN)NC(=O)[C@H](CO)NC(=O)[C@H](Cc3ccc(O)cc3)NC(=O)[C@H](CC(=O)O)NC(=O)[C@H](CO)NC(=O)[C@@H](NC(=O)[C@H](Cc3ccccc3)NC(=O)[C@@H](NC(=O)CNC(=O)[C@H](CCC(N)=O)NC(=O)C(C)(C)NC(=O)[C@@H](N)Cc3c[nH]cn3)[C@@H](C)O)[C@@H](C)O)C(=O)N[C@@H](CCC(N)=O)C(=O)N[C@@H](C)C(=O)N[C@@H](C)C(=O)N2)[C@@H](C)CC)C(=O)N[C@@H](Cc2c[nH]c3ccccc23)C(=O)N[C@@H](CC(C)C)C(=O)N[C@@H](CC(C)C)C(=O)N[C@@H](CCC(N)=O)C(=O)N[C@H](C(N)=O)[C@@H](C)O)[C@@H](O)[C@H](O)[C@H]1O [analogue 13]
Selectivity Ratio (SR=GCGR EC50/GLP-1 EC50) (GCGR): 5
Selectivity Ratio GLP-1R vs GCGR (human GLP-1R): 5
EC50 (human GLP-1R; [3]): 37.2 pM

Compound: exendin-4 [reference compound]
Fold Improvement GLP-1R (human GLP-1R): 1
fold improvement on replacing BSA (0.1%) with OVA (0.1%) (human GLP-1R): negligible
